Experimental data published in patent US20090131354A1, “miR-126 REGULATED GENES AND PATHWAYS AS TARGETS FOR THERAPEUTIC INTERVENTION” (priority 2007, published 2009).

System: A549 cells
Assay: mRNA array gene expression analysis after transfection
Assay type: cell-based, human
Conditions: A549, 30 nM

Substance: hsa-miR-126 (UCGUACCGUGAGUAAUAAUGC; synthetic pre-miR form, further chemistry not given here) [Synthetic hsa-miR-126 (Pre-miR™-hsa-miR-126, Ambion cat. no. AM17100)]
- Δ log2 LBA1 mRNA: 1.07 log2
- Δ log2 LCN2 mRNA: 1.032 log2
- Δ log2 LOC93349 mRNA: 1.021 log2
- Δ log2 LOC257407 mRNA: 1.211 log2
- Δ log2 LRP12 mRNA: −2.094 log2
- Δ log2 LXN mRNA: 1.017 log2
- Δ log2 M6PRBP1 mRNA: −1.074 log2
- Δ log2 MAP1B mRNA: −0.706 log2
- Δ log2 MAP3K1 mRNA: 1.609 log2
- Δ log2 MAPK6 mRNA: −0.81 log2
- Δ log2 MASK mRNA: −1.4 log2
- Δ log2 MAWBP mRNA: 1.126 log2
- Δ log2 MAZ mRNA: −1.133 log2
- Δ log2 MCL1 mRNA: 1.394 log2
- Δ log2 MET mRNA: −0.9508 log2
- Δ log2 MICAL2 mRNA: −1.182 log2
- Δ log2 MMP7 mRNA: 1.127 log2
- Δ log2 MR1 mRNA: 0.702 log2
- Δ log2 MTUS1 mRNA: 0.7009 log2
- Δ log2 MYBL1 mRNA: −1.008 log2
- Δ log2 NAB1 mRNA: −0.7242 log2
- Δ log2 NCF2 mRNA: −0.8706 log2
- Δ log2 NEK4 mRNA: −1.197 log2
- Δ log2 NF1 mRNA: −1.383 log2
- Δ log2 NF2 mRNA: −0.8288 log2
- Δ log2 NID1 mRNA: 0.8833 log2
- Δ log2 NPTX1 mRNA: −1.204 log2
- Δ log2 NR1H4 mRNA: 1.063 log2
- Δ log2 NR2F1 mRNA: 0.8754 log2
- Δ log2 NR4A2 mRNA: 1.19 log2
- Δ log2 NRIP1 mRNA: 0.7196 log2
- Δ log2 NUCKS mRNA: 2.05 log2
- Δ log2 OLFML3 mRNA: −1.333 log2
- Δ log2 OXTR mRNA: −1.374 log2
- Δ log2 PCAF mRNA: −1.071 log2
- Δ log2 PDCD4 mRNA: 1.094 log2
- Δ log2 PDK4 mRNA: 1.686 log2
- Δ log2 PDXK mRNA: −1.142 log2
- Δ log2 PDZK1IP1 mRNA: 0.8906 log2
- Δ log2 PEX10 mRNA: −0.7177 log2
- Δ log2 PGK1 mRNA: 1.563 log2
- Δ log2 PHACTR2 mRNA: 0.8791 log2
- Δ log2 PHTF2 mRNA: −1.334 log2
- Δ log2 PLA1A mRNA: 1.623 log2
- Δ log2 PLA2G4A mRNA: 0.8899 log2
- Δ log2 PLCB1 mRNA: 1.421 log2
- Δ log2 PLEC1 mRNA: −0.9035 log2
- Δ log2 PLK1 mRNA: −0.7295 log2
- Δ log2 PLOD2 mRNA: −1.204 log2
- Δ log2 PMCH mRNA: 0.9697 log2
- Δ log2 PMM1 mRNA: −1.034 log2
- Δ log2 PPP3CB mRNA: −1.185 log2
- Δ log2 PRKCA mRNA: −1.083 log2
- Δ log2 PRO1843 mRNA: 1.386 log2
- Δ log2 PROS1 mRNA: 1.021 log2
- Δ log2 PSME3 mRNA: −0.8427 log2
- Δ log2 PTENP1 mRNA: 0.8904 log2
- Δ log2 PTK9 mRNA: 1.028 log2
- Δ log2 PTP4A1 mRNA: 0.7259 log2
- Δ log2 PXN mRNA: −0.8029 log2
- Δ log2 Pfs2 mRNA: −0.7674 log2
- Δ log2 QDPR mRNA: −1.048 log2
- Δ log2 QKI mRNA: 0.7094 log2
- Δ log2 RAB2 mRNA: 1.459 log2
- Δ log2 RAB11FIP2 mRNA: −0.8417 log2
- Δ log2 RAB40B mRNA: 1.166 log2
- Δ log2 RABL2B /// RABL2A mRNA: −0.8805 log2
- Δ log2 RAFTLIN mRNA: 0.9753 log2
- Δ log2 RARRES1 mRNA: 1.523 log2
- Δ log2 RARRES3 mRNA: 1.399 log2
- Δ log2 RASSF2 mRNA: −1.355 log2
- Δ log2 RBP4 mRNA: 1.037 log2
- Δ log2 RGC32 mRNA: 1.701 log2
- Δ log2 RHEB mRNA: 1.113 log2
- Δ log2 RHOB mRNA: −1.015 log2
- Δ log2 RHOBTB1 mRNA: 1.197 log2
- Δ log2 RIG mRNA: 0.9993 log2
- Δ log2 RIP mRNA: 1.299 log2
- Δ log2 RNASE4 mRNA: 1.351 log2
- Δ log2 RNF14 mRNA: −1.293 log2
- Δ log2 RPL14 mRNA: 0.7937 log2
- Δ log2 RPL38 mRNA: 1.084 log2
- Δ log2 RPS11 mRNA: 1.097 log2
- Δ log2 RRAGD mRNA: 1.193 log2
- Δ log2 SCARB2 mRNA: 0.9635 log2
- Δ log2 SCML1 mRNA: 0.9483 log2
- Δ log2 SDC1 mRNA: −0.9726 log2
- Δ log2 SDC4 mRNA: −1.316 log2
- Δ log2 SEC24A mRNA: 0.7724 log2
- Δ log2 SELENBP1 mRNA: 1.193 log2
- Δ log2 SEPP1 mRNA: 2.014 log2
- Δ log2 SEPT9 mRNA: −0.7282 log2
- Δ log2 SERPINA6 mRNA: 1.032 log2
- Δ log2 SERPINE1 mRNA: −1.338 log2
- Δ log2 SF3B4 mRNA: −1.044 log2
- Δ log2 SGPL1 mRNA: −1.59 log2
- Δ log2 SGPP1 mRNA: −1.773 log2
- Δ log2 SH3YL1 mRNA: 1.026 log2
- Δ log2 SLC2A3 mRNA: 0.7467 log2
- Δ log2 SLC3A2 mRNA: −1.221 log2
- Δ log2 SLC4A4 mRNA: −1.661 log2
- Δ log2 SLC4A7 mRNA: −0.9064 log2
- Δ log2 SLC7A5 mRNA: −1.958 log2
- Δ log2 SLC7A11 mRNA: −0.721 log2
- Δ log2 SLC26A2 mRNA: −1.615 log2
- Δ log2 SLC35D1 mRNA: −1.443 log2
- Δ log2 SLC39A6 mRNA: −2.468 log2
- Δ log2 SMARCA2 mRNA: 0.8119 log2
- Δ log2 SMTN mRNA: −1.071 log2
- Δ log2 SNRPD1 mRNA: −0.7027 log2
- Δ log2 SOCS2 mRNA: −0.7193 log2
- Δ log2 SORBS3 mRNA: −1.106 log2
- Δ log2 SPFH2 mRNA: 0.9346 log2
- Δ log2 SRD5A1 mRNA: −0.9713 log2
- Δ log2 STC1 mRNA: 0.8696 log2
- Δ log2 STK24 mRNA: −1.021 log2
- Δ log2 STX3A mRNA: 0.7983 log2
- Δ log2 SUMO2 mRNA: 0.9996 log2
- Δ log2 TAGLN mRNA: −0.9221 log2
- Δ log2 TARDBP mRNA: −1.05 log2
- Δ log2 TFG mRNA: 0.9981 log2
- Δ log2 TFPI mRNA: 1.003 log2
- Δ log2 TGFBR2 mRNA: 1.068 log2
- Δ log2 TGFBR3 mRNA: 1.082 log2
- Δ log2 THBS1 mRNA: −0.9922 log2
- Δ log2 TJP2 mRNA: 0.8301 log2
- Δ log2 TLR3 mRNA: 1.096 log2
- Δ log2 TM4SF20 mRNA: 0.9319 log2
- Δ log2 TNFAIP6 mRNA: −1.542 log2
- Δ log2 TNFRSFI2A mRNA: −1.07 log2
- Δ log2 TNFSF10 mRNA: 1.066 log2
- Δ log2 TNRC9 mRNA: 0.8141 log2
- Δ log2 TNS1 mRNA: 1.235 log2
- Δ log2 TP73L mRNA: 0.7602 log2
- Δ log2 TRA1 mRNA: 1.982 log2
- Δ log2 TRIM14 mRNA: −1.157 log2
- Δ log2 TRIM22 mRNA: 1.379 log2
- Δ log2 TSC mRNA: 1.372 log2
- Δ log2 TSPAN7 mRNA: 0.8049 log2
- Δ log2 TSPAN8 mRNA: 1.266 log2
- Δ log2 TTC3 mRNA: 0.7079 log2
- Δ log2 TUBB2 /// TUBB-PARALOG mRNA: −0.904 log2
- Δ log2 TXN mRNA: 1.543 log2
- Δ log2 TncRNA: 1.613 log2
- Δ log2 UAP1 mRNA: −1.613 log2
- Δ log2 UBE2L6 mRNA: 0.9119 log2
- Δ log2 UPK1B mRNA: −1.042 log2
- Δ log2 VDAC1 mRNA: −1.181 log2
- Δ log2 VDAC3 mRNA: 1.063 log2
- Δ log2 VIL2 mRNA: 0.7604 log2
- Δ log2 WDR1 mRNA: −0.8373 log2
- Δ log2 WDR41 mRNA: −1.49 log2
- Δ log2 WEE1 mRNA: 0.8892 log2
- Δ log2 WNT7B mRNA: −1.114 log2
- Δ log2 XM_371853 (gene symbol —) mRNA: 0.9326 log2
- Δ log2 XTP2 mRNA: 0.9083 log2
- Δ log2 YKT6 mRNA: −1.176 log2
- Δ log2 YOD1 mRNA: 0.869 log2
- Δ log2 YTHDF3 mRNA: −0.9397 log2
- Δ log2 ZNF467 mRNA: 1.211 log2
